Results as given in patent US7488716B2 (priority 2001, dated 2009).
Where a SMILES comes first, the peptide text is derived from it. The star is where a group is joined. Palmitoyl = CCCCCCCCCCCCCCCC(=O)*

Legend:
GLP-1 receptor [1] = biological target: T1, GLP-1 receptor (Rattus norvegicus, UniProt P32301); experiment: Competitive binding of peptide to the GLP-1 receptor in RINm5F cell plasma membranes (125I GLP-1); settings: read-out: GLP1 RIN IC50
T1 construct: endogenous in cells; host or cells: RINm5F cells
T1 sequence (P32301 22-463): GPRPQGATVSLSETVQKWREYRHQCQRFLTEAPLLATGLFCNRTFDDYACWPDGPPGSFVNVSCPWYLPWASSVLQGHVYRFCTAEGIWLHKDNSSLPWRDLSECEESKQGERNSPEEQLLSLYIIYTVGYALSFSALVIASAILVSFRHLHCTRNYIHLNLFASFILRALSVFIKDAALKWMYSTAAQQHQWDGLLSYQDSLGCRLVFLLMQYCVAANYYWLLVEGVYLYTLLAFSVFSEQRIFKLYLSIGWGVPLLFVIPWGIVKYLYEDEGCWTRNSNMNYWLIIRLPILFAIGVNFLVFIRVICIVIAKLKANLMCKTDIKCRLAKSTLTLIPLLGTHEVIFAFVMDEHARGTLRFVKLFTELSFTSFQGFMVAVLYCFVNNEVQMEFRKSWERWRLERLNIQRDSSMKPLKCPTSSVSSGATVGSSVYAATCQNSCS
Description: Flasks of RINm5F cells were washed with PBS, scraped in 20 mM Hepes-1 mM EDTA-250 mM sucrose buffer containing protease inhibitors (HES) and homogenized in a dounce homogenizer followed by repeated resuspension through a 23 gauge needle. Unbroken cells and nuclei were removed by centrifugation at 500×g for 5 minutes. The pellet was resuspended in HES buffer using a 23 gauge needle and the centrifugation was repeated. The supernatants from the two spins were combined and centrifuged at 40,000×g for 20 min. The resulting plasma membrane pellet was resuspended in HES buffer using a 23 gauge needle followed by a 25 gauge needle. Membranes were stored at −80° C. until use.
(§1) Competitive binding of some polypeptides of the invention to RINm5F cell plasma membranes was measured as follows. Ninety-six-well GF/C filtration plates (Millipore, Bedford, Mass.) were blocked with 0.3% PEI for at least one hour and washed twice with binding buffer consisting of 20 mM Tris, 2 mM EDTA, pH 7.5, 1 mg/ml BSA, and 1 mg/ml bacitracin. […] The plates were dried, scintillant was added to each well, and cpm per well determined using a Wallac Microbeta counter.

[2] = Intraperitoneal glucose tolerance testing (IPGTT) in rats or mice; type: in vivo; settings: ipGTT in mice 3 hours post dosing with 100 μg/kg peptide
Description: Blood glucose levels during intraperitoneal glucose tolerance testing in rats or mice by some polypeptides of the invention were measured as follows. The in vivo activity of the polypeptides of the invention when administered subcutaneously was examined in rats or mice. Rats or mice fasted overnight were given a subcutaneous injection of control or peptide (100 μg/kg). Basal blood glucose was measured prior to administration of peptides or three or 17 hours after administration of derivatized peptides, and the rats or mice were given 2 g/kg of glucose intraperitoneally. Blood glucose was measured again after 15, 30 and 60 minutes in rats or 30 and 60 minutes in mice.

GLP-1 receptor [3] = biological target: T1, GLP-1 receptor; experiment: Peptide signaling through GLP-1 receptor, cAMP scintillation proximity assay in RINm5F cells; type: cell-based; settings: for GLP1 Relative Potency: EC50 of native GLP-1 (7-36) divided by EC50 of polypeptide x 100, cAMP in RINm5F cells; for Emax: RIN-m5F, read-out: % GLP1 max
Description: The media was removed and the cells were washed twice with PBS. […] For assay of peptides conjugated with fatty acid, the BSA was omitted from the incubation buffer. The incubation buffer was removed, and the cells were lysed in the lysis reagent provided with the cAMP Scintillation Proximity Assay (SPA) direct screening assay system (Amersham Pharmacia Biotech Inc, Piscataway, N.J.). The amount of cAMP (in pmol) present in the lysates was determined following instructions provided with this kit.
The amount of cAMP (in pmol) produced at each concentration of peptide was plotted and analyzed by nonlinear regression using Prizm software to determine the EC50 for each peptide.

glucagon receptor = biological target: T2, glucagon receptor (Rattus norvegicus, UniProt P30082); experiment: Competitive binding of peptide to the glucagon receptor in rat liver plasma membranes (125I glucagon)
T2 construct: glucagon receptor present in the plasma membranes isolated from rat liver; from tissue; host or cells: rat liver plasma membranes
Description: The wet weight of the livers was determined and the tissue minced in 5 volumes of ice cold TES buffer and a slurry prepared using a polytron. All buffers and spins were kept at 4° C. The slurry was further homogenized using three strokes of a handheld dounce homogenizer. The homogenate was passed through several layers of cheesecloth and spun at 25,000×g for 10 minutes. Pellets were homogenized in 22.1 ml TES buffer using 10 strokes of a handheld dounce homogenizer. Twenty-seven point nine milliliters of 2.4 M sucrose in TE was added and mixed well. The homogenate was distributed among several tubes, and each tube was overlaid with 7 ml of TES buffer. The tubes were spun at 120,000×g for 60 minutes. The plasma membranes were removed from the interface that formed during the spin, diluted in TES and concentrated using a 15 minute spin at 200,000×g. The resulting pellet was again homogenized in 9.8 ml TES buffer, combined with 10.3 ml 2.4M sucrose, overlaid with 7 ml TES, and centrifuged at 180,000×g for 30 min. […] The final pellet was resuspended in TES. Plasma membranes were stored at −80° C. until ready for use.
as §1, with “rat liver” for “RINm5F cell”, “0.1%” for “0.3%”

perfused rat islets = experiment: Insulin secretion by perfused rat islets; type: cell-based; settings: 50 nM peptide, 8 mM glucose
Description: Sprague Dawley rats (275-320 g) were used as the source of donor islets. Briefly, the pancreas was filled with 10 ml of cold reconstituted Liberase RI (Boehringer Manheim), harvested and incubated with additional 5 ml enzyme solution in water bath for 30 minutes. Tissue suspension was washed twice with cold 10% FBS/Hanks buffer (Gibco), resuspended in 8 ml 25% ficoll (Sigma) and then layered with 5 ml each of 23%, 20% and 11% ficoll. The islets in the 20% layer after centrifugation were removed, washed twice with cold 10% FBS/Hank buffer and resuspended in 10% FBS/RPMI 1640 media (Sigma).
Insulin secretion of perfused rat islets mediated by some peptides of the invention was measured as follows. The bi-phasic responses of insulin release stimulated by these polypeptides were tested by islet perfusion. Fifty islets were loaded in the perifusion chamber and perifused with HEPES-KRB containing 3 mM glucose at 37° C. After 60 min, islets were exposed to buffer containing 8 mM glucose with or without peptide (50 nM) and perifused for another 30 min. Fractions of perifusate were collected at 1 or 5 minute intervals for insulin determination. Insulin was measured using an ELISA kit (Alpco Diagnostics, Windham, N.H.).

T2 sequence (P30082 27-485): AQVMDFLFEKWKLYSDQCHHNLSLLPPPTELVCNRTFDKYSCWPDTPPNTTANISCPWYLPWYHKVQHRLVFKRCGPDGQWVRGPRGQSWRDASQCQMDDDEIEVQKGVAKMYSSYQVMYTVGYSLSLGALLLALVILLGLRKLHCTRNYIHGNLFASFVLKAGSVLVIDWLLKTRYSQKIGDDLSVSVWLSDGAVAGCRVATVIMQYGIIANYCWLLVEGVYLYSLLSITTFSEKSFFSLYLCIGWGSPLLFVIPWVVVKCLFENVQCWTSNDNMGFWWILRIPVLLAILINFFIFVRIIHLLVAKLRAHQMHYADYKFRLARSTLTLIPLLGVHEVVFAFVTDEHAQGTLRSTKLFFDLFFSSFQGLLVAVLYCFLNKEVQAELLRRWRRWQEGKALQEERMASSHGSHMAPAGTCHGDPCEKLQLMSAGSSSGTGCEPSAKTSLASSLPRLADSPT

For `CCCCCCCCCCCCCCCC(=O)NCCCC[C@H](NC(=O)[C@@H](NC(=O)[C@H](Cc1ccccc1)NC(=O)[C@H](CCC(=O)O)NC(=O)[C@H](CCCNC(=N)N)NC(=O)[C@H](C)NC(=O)[C@H](CCCNC(=N)N)NC(=O)[C@H](CCCNC(=N)N)NC(=O)[C@H](C)NC(=O)[C@H](CC(=O)O)NC(=O)[C@H](CC(C)C)NC(=O)[C@H](Cc1ccc(O)cc1)NC(=O)[C@H](CCCNC(=N)N)NC(=O)[C@H](C)NC(=O)[C@H](Cc1ccc(O)cc1)NC(=O)[C@H](CC(=O)O)NC(=O)[C@H](CO)NC(=O)[C@@H](NC(=O)[C@H](Cc1ccccc1)NC(=O)[C@@H](NC(=O)CNC(=O)[C@H](CCC(N)=O)NC(=O)[C@H](CO)NC(=O)[C@@H](N)Cc1c[nH]cn1)[C@@H](C)O)[C@@H](C)O)[C@@H](C)CC)C(=O)N[C@@H](Cc1c[nH]c2ccccc12)C(=O)N[C@@H](CC(C)C)C(=O)N[C@H](C(=O)N[C@@H](CCCNC(=N)N)C(=O)NCC(=O)N[C@@H](CCCNC(=N)N)C(=O)NCC(=O)O)C(C)C` [G90], the IC50 (GLP-1 receptor [1]) was 25.4 nM, the “In vivo Decrease IpGTT AUC” value [2] was 13% and the “GLP1 Relative Potency” value (GLP-1 receptor [3]) was 0.8%. For the same molecule, the Emax (GLP-1 receptor [3]) was 83.5% and the IC50 (glucagon receptor) was 726 nM.
In the case of `CC[C@H](C)[C@H](NC(=O)[C@H](Cc1ccccc1)NC(=O)[C@H](CCC(=O)O)NC(=O)[C@H](CCCCN)NC(=O)[C@H](C)NC(=O)[C@H](C)NC(=O)[C@H](CCC(N)=O)NC(=O)CNC(=O)[C@H](CCC(=O)O)NC(=O)[C@H](CC(C)C)NC(=O)[C@H](Cc1ccc(O)cc1)NC(=O)[C@H](CO)NC(=O)[C@H](CO)NC(=O)[C@@H](NC(=O)[C@H](CC(=O)O)NC(=O)[C@H](CO)NC(=O)[C@@H](NC(=O)[C@H](Cc1ccccc1)NC(=O)[C@@H](NC(=O)CNC(=O)[C@H](CCC(=O)O)NC(=O)[C@H](C)NC(=O)[C@@H](N)Cc1c[nH]cn1)[C@@H](C)O)[C@@H](C)O)C(C)C)C(=O)N[C@@H](C)C(=O)N[C@@H](Cc1c[nH]c2ccccc12)C(=O)N[C@@H](CC(C)C)C(=O)N[C@H](C(=O)N[C@@H](CCCCN)C(=O)NCC(=O)N[C@@H](CCCNC(=N)N)C(N)=O)C(C)C` [GLP-1, reference compound], the “Increase of insulin secretion from perfused islets” value (perfused rat islets) is reported as “approximately 2 fold”.
With `CCCCCCCCCCCCCCCC(=O)NCCCC[C@H](NC(=O)CNC(=O)[C@H](CCCNC(=N)N)NC(=O)CNC(=O)[C@H](CCCNC(=N)N)NC(=O)[C@@H](NC(=O)[C@H](CC(C)C)NC(=O)[C@H](Cc1c[nH]c2ccccc12)NC(=O)[C@H](CCCCN)NC(=O)[C@@H](NC(=O)[C@H](Cc1ccccc1)NC(=O)[C@H](CCC(=O)O)NC(=O)[C@H](CCCNC(=N)N)NC(=O)[C@H](C)NC(=O)[C@H](CCCNC(=N)N)NC(=O)[C@H](CCCNC(=N)N)NC(=O)[C@H](C)NC(=O)[C@H](CC(=O)O)NC(=O)[C@H](CC(C)C)NC(=O)[C@H](Cc1ccc(O)cc1)NC(=O)[C@H](CCCNC(=N)N)NC(=O)[C@H](C)NC(=O)[C@H](Cc1ccc(O)cc1)NC(=O)[C@H](CC(=O)O)NC(=O)[C@H](CO)NC(=O)[C@@H](NC(=O)[C@H](Cc1ccccc1)NC(=O)[C@@H](NC(=O)CNC(=O)[C@H](CCC(N)=O)NC(=O)[C@H](CO)NC(=O)[C@@H](N)Cc1c[nH]cn1)[C@@H](C)O)[C@@H](C)O)[C@@H](C)CC)C(C)C)C(=O)O` [G182] (H-HSQGTFTSDYARYLDARRAREFIKWLVRGRGK(Palmitoyl)-OH; N-terminus and C-terminus assumed) the IC50 (GLP-1 receptor [1]) was 12.6 nM, the “In vivo Decrease IpGTT AUC” value [2] was 14% and the “GLP1 Relative Potency” value (GLP-1 receptor [3]) was 1.4%. The Emax (GLP-1 receptor [3]) was 104% and the IC50 (glucagon receptor) was 220 nM.
With `CCCCCCCCCCCCCCCC(=O)NCCCC[C@H](NC(=O)[C@H](CCCNC(=N)N)NC(=O)CNC(=O)[C@H](CCCCN)NC(=O)[C@@H](NC(=O)[C@H](CC(C)C)NC(=O)[C@H](Cc1c[nH]c2ccccc12)NC(=O)[C@H](C)NC(=O)[C@@H](NC(=O)[C@H](Cc1ccccc1)NC(=O)[C@H](CCC(=O)O)NC(=O)[C@H](CCCCN)NC(=O)[C@H](C)NC(=O)[C@H](CCCNC(=N)N)NC(=O)[C@H](CCCNC(=N)N)NC(=O)[C@H](C)NC(=O)[C@H](CC(=O)O)NC(=O)[C@H](CC(C)C)NC(=O)[C@H](Cc1ccc(O)cc1)NC(=O)[C@H](CCCCN)NC(=O)[C@H](C)NC(=O)[C@H](Cc1ccc(O)cc1)NC(=O)[C@H](CC(=O)O)NC(=O)[C@H](CO)NC(=O)[C@@H](NC(=O)[C@H](Cc1ccccc1)NC(=O)[C@@H](NC(=O)CNC(=O)[C@H](CCC(N)=O)NC(=O)[C@H](CO)NC(=O)[C@@H](N)Cc1c[nH]cn1)[C@@H](C)O)[C@@H](C)O)[C@@H](C)CC)C(C)C)C(=O)O` [G88] (H-HSQGTFTSDYAKYLDARRAKEFIAWLVKGRK(Palmitoyl)-OH; N-terminus and C-terminus assumed) the IC50 (GLP-1 receptor [1]) was 109 nM, the “In vivo Decrease IpGTT AUC” value [2] was 16% and the “GLP1 Relative Potency” value (GLP-1 receptor [3]) was 2.3%. It also gave an Emax (GLP-1 receptor [3]) of 118% and an IC50 (glucagon receptor) of 350 nM.
In the case of `CCCCCCCCCCCCCCCC(=O)NCCCC[C@H](NC(=O)[C@H](C)NC(=O)[C@H](CCCNC(=N)N)NC(=O)[C@H](CCCNC(=N)N)NC(=O)[C@H](C)NC(=O)[C@H](CC(=O)O)NC(=O)[C@H](CC(C)C)NC(=O)[C@H](Cc1ccc(O)cc1)NC(=O)[C@H](CCCCN)NC(=O)[C@H](C)NC(=O)[C@H](Cc1ccc(O)cc1)NC(=O)[C@H](CC(=O)O)NC(=O)[C@H](CO)NC(=O)[C@@H](NC(=O)[C@H](Cc1ccccc1)NC(=O)[C@@H](NC(=O)CNC(=O)[C@H](CCC(N)=O)NC(=O)[C@H](CO)NC(=O)[C@@H](N)Cc1c[nH]cn1)[C@@H](C)O)[C@@H](C)O)C(=O)N[C@@H](CCC(=O)O)C(=O)N[C@@H](Cc1ccccc1)C(=O)N[C@H](C(=O)N[C@@H](C)C(=O)N[C@@H](Cc1c[nH]c2ccccc12)C(=O)N[C@@H](CC(C)C)C(=O)N[C@H](C(=O)N[C@@H](CCCCN)C(=O)NCC(=O)N[C@@H](CCCNC(=N)N)C(N)=O)C(C)C)[C@@H](C)CC` [G87] (H-HSQGTFTSDYAKYLDARRAK(Palmitoyl)EFIAWLVKGR-NH2; N-terminus assumed), the IC50 (GLP-1 receptor [1]) is reported as 98.6 nM, the “In vivo Decrease IpGTT AUC” value [2] is reported as 13% and the “GLP1 Relative Potency” value (GLP-1 receptor [3]) is reported as 6.1%. The Emax (GLP-1 receptor [3]) was 100% and the IC50 (glucagon receptor) was 620 nM.
